The text below walks through data of EP1974751A1, “Formulations for non-steroidal anti-inflammatory drugs” (The Jordanian Pharmaceutical Manufacturing Co., priority 2007, dated 2008).

Consider `OC[C@H]1O[C@@H]2O[C@H]3[C@H](O)[C@@H](O)[C@@H](O[C@H]4[C@H](O)[C@@H](O)[C@@H](O[C@H]5[C@H](O)[C@@H](O)[C@@H](O[C@H]6[C@H](O)[C@@H](O)[C@@H](O[C@H]7[C@H](O)[C@@H](O)[C@@H](O[C@H]8[C@H](O)[C@@H](O)[C@@H](O[C@H]1[C@H](O)[C@H]2O)O[C@@H]8CO)O[C@@H]7CO)O[C@@H]6CO)O[C@@H]5CO)O[C@@H]4CO)O[C@@H]3CO` [β-cyclodextrin], for which the “optimal solubility of β-cyclodextrin” value (distilled water) is listed as 20 mM. Where the note is “water”, this molecule yielded a β-cyclodextrin solubility of 230 mM.
